Laboratory results: US4459294A, “Phosphoric and thiophosphoric esters of 5(3)-hydroxypyrazoles exerting an insecticidal action” (priority 1977, dated 1984)

What was measured:
Pieris brassicae = test: Biological activity on Pieris brassicae (Lepitoptera), 5-day old larvae; type: in vivo; conditions: 0.1 permill.; 48 hours after treatment
Experimental: Biological activity on Pieris brassicae (Lepitoptera)
Cut cauliflower leaves were sprinkled with an aqueous dispersion of the products under examination. After drying, the leaves were infested with 5-day old larvae. The percentage death rate of the larvae (untreated leaves=0) was determined 48 hours after treatment.

Culex pipiens adults = test: Biological activity on Culex pipiens (Diptera): adults; type: in vivo; conditions: 0.2 g/m^2, 24 hours after beginning of treatment, read-out: percentage of reduction of the infestation (mortality percentage), Culex ad.
Experimental: Biological activity on Culex pipiens (Diptera): adults
Whatman n°1 paper rectangles were treated uniformly with an acetonic solution of the products under examination. After evaporation of the solvent, each treated paper rectangle was used to line the inside wall of a perspex cylinder (model OMS). The paper-lined perspex cylinder was then closed with a net after having introduced into it 2-3 days old adult females. After one hour from the start of the contact, the insects were transferred into a similar cylinder likewise lined with untreated paper, and were fed with a sugary solution.
The mortality percentage (untreated insects=0) was determined 24 hours after the beginning of the treatment.

Toxicity by os on rats = conditions: rat, in vivo, po
Macrosiphum euphorbiae = test: Biological activity on Macrosiphum euphorbiae (aphides); type: in vivo; design: tested at 0.01 permill; conditions: 0.01 permill.; 24 hours after treatment
Experimental: Biological activity on Macrosiphum euphorbiae (aphides)
Small potato plants grown in pots were infested with adult female aphides and, after several hours, were sprinkled with an aqueous dispersion of the products under examination.
The percentage death rate was determined 24 hours after treatment (untreated plants=0).

Spodoptera littoralis = test: Biological activity on Spodoptera littoralis (Lepidoptera), 5-days old larvae; type: in vivo; conditions: 0.1 permill.; 48 hours after treatment
Experimental: Biological activity on Spodoptera littoralis (Lepidoptera)
Cut tobacco leaves were sprinkled with an aqueous dispersion of the products under examination. After drying, the leaves were infested with 5-days old larvae. The percentage mortality of the larvae was determined 48 hours after treatment (untreated leaves, mortality=0).

Blatta orientalis = test: Biological activity on Blatta orientalis (Ortoptera); type: in vivo; conditions: 0.1 g/m^2, 48 hours after start of treatment, read-out: percentage of reduction of the infestation (percentage mortality), Blatta
Experimental: Biological activity on Blatta orientalis (Ortoptera)
The bottom and side walls of glass beakers were treated uniformly with an acetonic solution of the products under examination. After evaporation of the solvent in each beaker, into the same were then introduced ten, 80-100 days old neanides, whereafter they were closed with a lid of metal netting. After 24 hours from the beginning of the treatment, the insects were transferred into untreated glass beakers, and suitably nourished. The percentage mortality (untreated insects=0) was determined 48 hours after the start of the treatment.

Culex pipiens larvae = test: Biological activity on Culex pipiens (diptera) larvae; type: in vivo; conditions: 24 hours after treatment, read-out: percentage of reduction of the infestation (percentage death rate), Culex larvae
Experimental: Biological activity on Culex pipiens (diptera) larvae
Into glasses containing an aqueous dispersion of the products under examination, were introduced third and fourth age mosquito larvae. The percentage death rate of the larvae (glasses containing pure water=0) was determined 24 hours after treatment.

Meloidogyne incognita = test: Biological activity on Meloidogyne incognita (Nematoda); type: in vivo; conditions: 20 ppm; 21 days after transplanting
Experimental: Biological activity on Meloidogyne incognita (Nematoda)
Aliquot parts of a 1:1 mixture of field soil and sand, infested by Nematoda larvae and eggs, were treated by uniformly mixing same with an aqueous dispersion of the products under examination. The soil was then distributed into plastic pots, and after 5 days into each pot there were transplanted 5 tomato plants about 20 cm high. The survey of the results was carried out 21 days after the transplanting, by observing the roots of the plants extracted from the soil in order to ascertain the degree of infestation by counting the galls that have formed on them. The nematocide activity was expressed as a percentage of reduction of the infestation with respect to the witness plant (small plants transplanted into untreated soil, activity=0).

Musca domestica = test: Biological activity on Musca domestica (Diptera), topical application; type: in vivo; conditions: 0.5 γ/ins, 24 hours after treatment
Experimental: Biological activity on Musca domestica (Diptera)
4-days old adults were treated, by topical application by microsyringe, with an acetonic solution of the products under examination.
The mortality percentage (insects treated with acetone only=0) was determined 24 hours after the treatment.

[1] = system: Leptinatarsa decomlineata; test: Biological activity on Leptinatarsa decomlineata (Coledptera), 4-day old larvae; type: in vivo; conditions: 0.1 permill.; 48 hours after treatment
Experimental: Biological activity on Leptinatarsa decomlineata (Coledptera)
Small, pot-grown potato-plants were infested with 4-day old larvae, and then were sprinkled with an aqueous dispersion of the products under examination. The percentage death rate (untreated plants=0) was determined 48 hours after treatment.

Tetranychus urticae = test: Biological activity on Tetranychus urticae (Acari) adults; type: in vivo; conditions: 0.01 permill.; 24 hours after treatment
Experimental: Biological Activity on Tetranychus urticae (Acari) adults
Small bean leaf discs were infected with adult acari and were then sprinkled with an aqueous dispersion of the products under examination. The percentage of mortality was determined 24 hours after the treatment (untreated discs, mortality=0).

[2] = system: insects, acari and nematoda; test: Pesticidal activity against insects, acari and nematoda (general statements); type: in vivo
Experimental: The pesticidal activity, verified by the methods described below in Example 12, is recorded below in the following Table 3 in comparison with that of "Pyrazothion".

Row | SMILES | percentage of reduction of the infestation (percentage death rate of larvae), Pieris B (Pieris brassicae) | mortality at 0.2 g/m2 (Culex pipiens adults) | LD50 (Toxicity by os on rats) | percentage of reduction of the infestation (percentage death rate), Macrosiph. E. (Macrosiphum euphorbiae) | percentage of reduction of the infestation (percentage mortality of larvae), Spodoptera L (Spodoptera littoralis) | mortality at 0.1 g/m2 (Blatta orientalis) | mortality at 0.2 ppm (Culex pipiens larvae) | percentage of reduction of the infestation, Meloidog. I. (Meloidogyne incognita) | percentage of reduction of the infestation (mortality percentage), Musca d. (Musca domestica) | percentage of reduction of the infestation (percentage death rate), Leptinot D. [1] | percentage of reduction of the infestation (percentage of mortality), Tetran U. (Tetranychus urticae) | activity against Spodoptera, Culex, Musca, Leptinotarsa, Meloidogine incognita ([2]; Spodoptera, Culex, Musca, Leptinotarsa, Meloidogine incognita) | activity against insects, acari and nematoda ([2]; in vivo)
1 | CCOP(=S)(OC)Oc1cc(Cl)nn1C (stereo not shown) [Compound 23] | 100% | 100% | 487 mg/kg | 92% | 100% | 100% | 100% | 100% | 100% | 100% | 100% | – | –
2 | CCOP(=S)(OCC)Oc1cc(C)[nH]n1 [Pyrazothion, diethyl-thiophosphoric ester of 3(5)-methyl-5(3)-hydroxypyrazole, reference compound] | 70% | 0% | 36 mg/kg | 60% | 0% | 20% | 0% | 0% | 0% | 0% | 90% | ineffective | does not shown activity
3 | CCOP(=S)(OCC)Oc1cc(Cl)nn1C [Compound 13] | 100% | 100% | 25 mg/kg | 99% | 100% | 100% | 100% | 100% | 100% | 100% | 100% | – | –
4 | CCOP(=S)(OC)Oc1cc(Cl)nn1-c1ccccc1 (stereo not shown) [Compound 37] | 100% | 100% | 320 mg/kg | 48% | 100% | 100% | 100% | 47% | 100% | 100% | 0% | – | –
5 | CCOP(=S)(OCC)Oc1cc(C=C(Cl)Cl)nn1C [Compound 6] | 100% | 76% | 175 mg/kg | 100% | 100% | 100% | 100% | 95% | 100% | 100% | 100% | – | –
6 | COP(=S)(OC)Oc1cc(Cl)nn1C [Compound 14] | 100% | 100% | 560 mg/kg | 96% | 82% | 100% | 100% | 41% | 100% | 37% | 100% | – | –
7 | COP(=S)(OC)Oc1cc(Cl)nn1-c1ccccc1 [Compound 1, O,O-dimethyl-0-(1-phenyl-3-chloropyrazol-5-yl) thiophosphate] | 100% | 100% | 400 mg/kg | 90% | 100% | 100% | 100% | 80% | 100% | 100% | 60% | – | –
